# Read-outs that look alike come from different tables or passages of the source. No end group written: not given here.
# Tests used:
# CKR-1 = target: T1, CKR-1 (Caenorhabditis elegans, UniProt P91487); experiment: GPCR activation assay, CKR-1 (aequorin bioluminescence calcium, CHO-K1 Gα16); format: cell-based; conditions: for ratio of total calcium response: in vitro controls, CKR-1
# T1 sequence (P91487 1-421): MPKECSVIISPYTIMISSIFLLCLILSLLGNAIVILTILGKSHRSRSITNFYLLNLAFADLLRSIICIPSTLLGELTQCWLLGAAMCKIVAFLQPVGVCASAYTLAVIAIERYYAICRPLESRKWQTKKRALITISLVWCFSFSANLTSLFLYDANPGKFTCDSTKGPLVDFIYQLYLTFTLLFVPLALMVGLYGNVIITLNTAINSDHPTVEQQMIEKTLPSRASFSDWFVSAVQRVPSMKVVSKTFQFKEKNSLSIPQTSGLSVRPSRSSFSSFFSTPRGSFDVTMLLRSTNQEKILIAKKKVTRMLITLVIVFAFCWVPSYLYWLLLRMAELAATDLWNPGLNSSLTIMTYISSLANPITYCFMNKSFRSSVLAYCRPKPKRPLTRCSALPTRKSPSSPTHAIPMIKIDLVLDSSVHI
# Experimental: (§1) To obtain direct evidence for NLP-12 activation of CKR-1, we used an in vitro bioluminescence-based approach. CKR-1 was expressed in Chinese hamster ovarian (CHO) cells stably expressing the promiscuous G-protein alpha subunit Gα16 and a bioluminescent calcium indicator, aequorin ([Caers et al., 2014]). The NLP-12 precursor gives rise to two distinct mature peptides, NLP-12–1 and NLP-12–2.
# (§2) The GPCR activation assay was performed as previously described ([Caers et al., 2014]; [Peymen et al., 2019]; [Van Sinay et al., 2017]). Briefly, CHO-K1 cells stably expressing the luminescent Ca^2+ indicator aequorin and the promiscuous Gα16 protein (ES-000-A24 cell line, PerkinElmer) were transiently transfected with ckr-1/pcDNA3.1, ckr-2/pcDNA3.1, or empty pcDNA3.1 vector. Cells were transfected with Lipofectamine LTX and Plus reagent (Invitrogen) at 60–80% confluency and grown overnight at 37°C. After 24 hr, they were shifted to 28°C overnight. On the day of the assay, transfected cells were collected in bovine serum albumin (BSA) medium (DMEM/F12 without phenol red with L-glutamine and 15 mM HEPES, Gibco, supplemented with 0.1% BSA), at a density of 5 million cells per ml, and loaded with 5 µM coelenterazine h (Invitrogen) for 4 hr at room temperature. Compound plates containing synthetic peptides in DMEM/BSA were placed in a MicroBeta LumiJet luminometer (PerkinElmer). After loading, the transfected cells were added at a density of 25,000 cells/well, and luminescence was measured for 30 s at a wavelength of 469 nm. After 30 s, 0.1% triton X-100 (Merck) was added to lyse the cells, resulting in a maximal Ca^2+ response that was measured for 30 s. To constitute concentration-response curves of NLP-12 peptides, peptide concentrations ranging from 1 pM to 10 µM were tested in triplicate on 2 independent days.
# CKR-2 = CKR-2 (Caenorhabditis elegans, UniProt M1Z894); experiment: GPCR activation assay, CKR-2 (aequorin bioluminescence calcium, CHO-K1 Gα16); format: cell-based; conditions: for ratio of total calcium response: in vitro controls, CKR-2
# Experimental: as §1, §2
# [1] = system: CHO cells transfected with an empty pcDNA3.1 vector; experiment: GPCR activation assay, control cells transfected with empty pcDNA3.1 vector; format: cell-based, Chinese hamster; conditions: in vitro controls
# Experimental: as §1, §2
# [2] = system: SMD neurons, Caenorhabditis elegans; conditions: in vivo
# [3] = CHO-K1 cells, aequorin/Gα16, 1 pM to 10 µM, triplicate on 2 independent days (n=6), luminescence 469 nm, 30 s, read-out: EC50 (CKR-1 activation, calcium response)
# [4] = concentration-response curve fit, n=6, read-out: 95% confidence interval (EC50, CKR-1 activation)
# [5] = read-out: 95% confidence interval (EC50, CKR-2 activation), concentration-response curve fit, n=6
# [6] = read-out: EC50 (CKR-2 activation, calcium response), CHO-K1 cells, aequorin/Gα16, 1 pM to 10 µM, triplicate on 2 independent days (n=6), luminescence 469 nm, 30 s
# Chain of CKR-2 (M1Z894 entry or part of it): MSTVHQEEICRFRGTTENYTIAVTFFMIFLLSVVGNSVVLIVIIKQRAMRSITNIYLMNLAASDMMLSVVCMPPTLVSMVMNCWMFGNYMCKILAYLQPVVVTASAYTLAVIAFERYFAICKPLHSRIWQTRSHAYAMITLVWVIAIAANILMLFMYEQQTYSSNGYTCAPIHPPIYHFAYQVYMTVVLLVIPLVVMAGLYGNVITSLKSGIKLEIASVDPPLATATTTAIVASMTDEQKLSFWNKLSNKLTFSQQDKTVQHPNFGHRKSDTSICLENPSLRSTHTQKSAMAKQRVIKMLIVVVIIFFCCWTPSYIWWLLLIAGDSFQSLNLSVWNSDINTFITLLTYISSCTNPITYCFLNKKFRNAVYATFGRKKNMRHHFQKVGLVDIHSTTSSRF
compound,measurement,setting,value
Nc1ncnc2c1ncn2[C@@H]1O[C@H](COP(=O)(O)OP(=O)(O)OP(=O)(O)O)[C@@H](O)[C@H]1O [ATP],ratio of total calcium response,CKR-1; replicate 1,0.6901
same,ratio of total calcium response,CKR-1; replicate 2,0.479
same,ratio of total calcium response,CKR-1; replicate 3,0.5419
same,ratio of total calcium response,CKR-1; replicate 4,0.7243
same,ratio of total calcium response,CKR-1; replicate 5,0.7237
same,ratio of total calcium response,CKR-2; replicate 1,0.7753
same,ratio of total calcium response,CKR-2; replicate 2,0.8315
same,ratio of total calcium response,CKR-2; replicate 3,0.845
same,ratio of total calcium response,CKR-2; replicate 4,0.8913
same,ratio of total calcium response,CKR-2; replicate 5,0.8945
same,ratio of total calcium response,[1]; replicate 1,0.9381
same,ratio of total calcium response,[1]; replicate 2,0.6003
same,ratio of total calcium response,[1]; replicate 3,0.6268
same,ratio of total calcium response,[1]; replicate 4,0.814
same,ratio of total calcium response,[1]; replicate 5,0.8225
"DYRPLQF-NH2 [NLP-12-1, DYRPLQFamide]",EC50,CKR-1; [3],3.5 nM
same,EC50,CKR-1; [4],1.79 to 7.07 nM
same,EC50,CKR-2; [5],5.16 to 12.5 nM
same,EC50,CKR-2; [6],8 nM
"DGYRPLQF-NH2 [NLP-12-2, DGYRPLQFamide]",EC50,CKR-1; [3],1.9 nM
same,EC50,CKR-1; [4],0.93 to 3.77 nM
same,EC50,CKR-2; [5],6.43 to 16.7 nM
same,EC50,CKR-2; [6],10.2 nM
NCCc1c[nH]cn1 [histamine],reorientations during food searching upon SMD silencing,[2],reduced reorientations with SMD silencing in transgenics
